Measurements from patent US5843889A, “Glycopeptide antibiotic derivatives” (Eli Lilly and Company, priority 1997, dated 1998).
In brackets after ≈: the same amount, converted by molar mass.

What was measured:
Test in all cases: MIC, standard broth micro-dilution assay
Assay type in all cases: cell-based
[1] = tested on: Entercoccus gallinarum 245
Method: (§1) The formula I compounds have in vitro and in vivo activity against Gram-positive pathogenic bacteria. The MIC's were determined using a standard broth micro-dilution assay.

Entercoccus faecalis 276 = tested on: Entercoccus faecalis 276
Method: as §1

[2] = tested on: Entercoccus faecalis 2041
Method: as §1

SMILES | MIC [1] [µg/mL] | MIC (Entercoccus faecalis 276) [µg/mL] | MIC [2] [µg/mL]
CNC(CC(C)C)C(=O)NC1C(=O)NC(CC(N)=O)C(=O)NC2C(=O)NC3C(=O)NC(C(=O)NC(C(=O)O)c4cc(O)cc(O)c4-c4cc3ccc4O)C(OC3CC(C)(N)C(O)C(C)O3)c3ccc(c(Cl)c3)Oc3cc2cc(c3OC2OC(CO)C(O)C(O)C2OC2CC(C)(NCc3ccc(S(=O)(=O)c4ccc(Cl)cc4)cc3)C(O)C(C)O2)Oc2ccc(cc2Cl)C1O (stereo not drawn) [Compound 148, 4-[4-chlorophenylsulfonyl]benzyl] | 2 (≈ 1.08 µM) | ≤ 0.06 | ≤ 0.06
CNC(CC(C)C)C(=O)NC1C(=O)NC(CC(N)=O)C(=O)NC2C(=O)NC3C(=O)NC(C(=O)NC(C(=O)O)c4cc(O)cc(O)c4-c4cc3ccc4O)C(OC3CC(C)(N)C(O)C(C)O3)c3ccc(c(Cl)c3)Oc3cc2cc(c3OC2OC(CO)C(O)C(O)C2OC2CC(C)(NCc3ccc(OS(=O)(=O)c4c(C)c(C)c(C)c(C)c4C)cc3)C(O)C(C)O2)Oc2ccc(cc2Cl)C1O (stereo not drawn) [Compound 173, 4-[[2,3,4,5,6-pentamethyl]phenylsulfonyloxy]benzyl] | 4 (≈ 2.1 µM) | 2 (≈ 1.05 µM) | 0.5 (≈ 0.262 µM)
CNC(CC(C)C)C(=O)NC1C(=O)NC(CC(N)=O)C(=O)NC2C(=O)NC3C(=O)NC(C(=O)NC(C(=O)O)c4cc(O)cc(O)c4-c4cc3ccc4O)C(OC3CC(C)(N)C(O)C(C)O3)c3ccc(cc3)Oc3cc2cc(c3OC2OC(CO)C(O)C(O)C2OC2CC(C)(NCc3ccc(-c4ccccc4)cc3)C(O)C(C)O2)Oc2ccc(cc2Cl)C1O (stereo not drawn) [Compound 182, 4-phenylbenzyl] | 1 (≈ 0.58 µM) | 1 (≈ 0.58 µM) | 1 (≈ 0.58 µM)
CNC(CC(C)C)C(=O)NC1C(=O)NC(CC(N)=O)C(=O)NC2C(=O)NC3C(=O)NC(C(=O)NC(C(=O)O)c4cc(O)cc(O)c4-c4cc3ccc4O)C(OC3CC(C)(N)C(O)C(C)O3)c3ccc(c(Cl)c3)Oc3cc2cc(c3OC2OC(CO)C(O)C(O)C2OC2CC(C)(NCc3cccc(OCc4ccc5ccccc5n4)c3)C(O)C(C)O2)Oc2ccc(cc2Cl)C1O (stereo not drawn) [Compound 125, 3-[2-quinoylmethoxy]benzyl] | 12 (≈ 6.52 µM) | 2 (≈ 1.09 µM) | ≤ 0.06
CNC(CC(C)C)C(=O)NC1C(=O)NC(CC(N)=O)C(=O)NC2C(=O)NC3C(=O)NC(C(=O)NC(C(=O)O)c4cc(O)cc(O)c4-c4cc3ccc4O)C(OC3CC(C)(N)C(O)C(C)O3)c3ccc(c(Cl)c3)Oc3cc2cc(c3OC2OC(CO)C(O)C(O)C2OC2CC(C)(NCCCCCCCCOc3ccc(-c4ccccc4)cc3)C(O)C(C)O2)Oc2ccc(cc2Cl)C1O (stereo not drawn) [Compound 201, 8-[4-phenylphenoxy]octyl] | 8 (≈ 4.27 µM) | 4 (≈ 2.14 µM) | 1 (≈ 0.534 µM)
CNC(CC(C)C)C(=O)NC1C(=O)NC(CC(N)=O)C(=O)NC2C(=O)NC3C(=O)NC(C(=O)NC(C(=O)O)c4cc(O)cc(O)c4-c4cc3ccc4O)C(OC3CC(C)(N)C(O)C(C)O3)c3ccc(c(Cl)c3)Oc3cc2cc(c3OC2OC(CO)C(O)C(O)C2OC2CC(C)(NCC3CCC(Cc4ccccc4)CC3)C(O)C(C)O2)Oc2ccc(cc2Cl)C1O (stereo not drawn) [Compound 241, 4-[benzyl]cyclohexylmethyl] | ≤ 0.06 | ≤ 0.06 | ≤ 0.06
CNC(CC(C)C)C(=O)NC1C(=O)NC(CC(N)=O)C(=O)NC2C(=O)NC3C(=O)NC(C(=O)NC(C(=O)O)c4cc(O)cc(O)c4-c4cc3ccc4O)C(OC3CC(C)(N)C(O)C(C)O3)c3ccc(c(Cl)c3)Oc3cc2cc(c3OC2OC(CO)C(O)C(O)C2OC2CC(C)(NCCCCCCCCOc3ccccc3)C(O)C(C)O2)Oc2ccc(cc2Cl)C1O (stereo not drawn) [Compound 195, 8-phenoxyoctyl] | 4 (≈ 2.23 µM) | 0.25 (≈ 0.139 µM) | ≤ 0.06
CNC(CC(C)C)C(=O)NC1C(=O)NC(CC(N)=O)C(=O)NC2C(=O)NC3C(=O)NC(C(=O)NC(C(=O)O)c4cc(O)cc(O)c4-c4cc3ccc4O)C(OC3CC(C)(N)C(O)C(C)O3)c3ccc(c(Cl)c3)Oc3cc2cc(c3OC2OC(CO)C(O)C(O)C2OC2CC(C)(NCc3ccc(Oc4ccccc4[N+](=O)[O-])cc3)C(O)C(C)O2)Oc2ccc(cc2Cl)C1O (stereo not drawn) [Compound 70, 4-[2-nitrophenoxy]benzyl] | 2 (≈ 1.1 µM) | ≤ 0.06 | ≤ 0.06
CNC(CC(C)C)C(=O)NC1C(=O)NC(CC(N)=O)C(=O)NC2C(=O)NC3C(=O)NC(C(=O)NC(C(=O)O)c4cc(O)cc(O)c4-c4cc3ccc4O)C(OC3CC(C)(N)C(O)C(C)O3)c3ccc(c(Cl)c3)Oc3cc2cc(c3OC2OC(CO)C(O)C(O)C2OC2CC(C)(NCc3cccc(Oc4ccc(C(F)(F)F)cc4)c3)C(O)C(C)O2)Oc2ccc(cc2Cl)C1O (stereo not drawn) [Compound 132, 3-[4-trifluoromethylphenoxy]benzyl] | 2 (≈ 1.09 µM) | 1 (≈ 0.543 µM) | 1 (≈ 0.543 µM)
CNC(CC(C)C)C(=O)NC1C(=O)NC(CC(N)=O)C(=O)NC2C(=O)NC3C(=O)NC(C(=O)NC(C(=O)O)c4cc(O)cc(O)c4-c4cc3ccc4O)C(OC3CC(C)(N)C(O)C(C)O3)c3ccc(c(Cl)c3)Oc3cc2cc(c3OC2OC(CO)C(O)C(O)C2OC2CC(C)(NCc3cccc(Sc4ccc(C(C)(C)C)cc4)c3)C(O)C(C)O2)Oc2ccc(cc2Cl)C1O (stereo not drawn) [Compound 228, 3-[4-t-butyl-phenylthio]benzyl] | 4 (≈ 2.17 µM) | 1 (≈ 0.541 µM) | 0.25 (≈ 0.135 µM)
CNC(CC(C)C)C(=O)NC1C(=O)NC(CC(N)=O)C(=O)NC2C(=O)NC3C(=O)NC(C(=O)NC(C(=O)O)c4cc(O)cc(O)c4-c4cc3ccc4O)C(OC3CC(C)(N)C(O)C(C)O3)c3ccc(c(Cl)c3)Oc3cc2cc(c3OC2OC(CO)C(O)C(O)C2OC2CC(C)(NCCc3ccc(Cc4ccccc4)cc3)C(O)C(C)O2)Oc2ccc(cc2Cl)C1O (stereo not drawn) [Compound 35, 4 -benzylphenethyl] | ≤ 0.06 | ≤ 0.06 | ≤ 0.06
CNC(CC(C)C)C(=O)NC1C(=O)NC(CC(N)=O)C(=O)NC2C(=O)NC3C(=O)NC(C(=O)NC(C(=O)O)c4cc(O)cc(O)c4-c4cc3ccc4O)C(OC3CC(C)(N)C(O)C(C)O3)c3ccc(c(Cl)c3)Oc3cc2cc(c3OC2OC(CO)C(O)C(O)C2OC2CC(C)(NCc3ccc(Nc4ccccc4)cc3)C(O)C(C)O2)Oc2ccc(cc2Cl)C1O (stereo not drawn) [Compound 160, 4-anilinobenzyl] | 8 (≈ 4.51 µM) | 2 (≈ 1.13 µM) | ≤ 0.06
CNC(CC(C)C)C(=O)NC1C(=O)NC(CC(N)=O)C(=O)NC2C(=O)NC3C(=O)NC(C(=O)NC(C(=O)O)c4cc(O)cc(O)c4-c4cc3ccc4O)C(OC3CC(C)(N)C(O)C(C)O3)c3ccc(c(Cl)c3)Oc3cc2cc(c3OC2OC(CO)C(O)C(O)C2OC2CC(C)(NCCCCC3CCCCC3)C(O)C(C)O2)Oc2ccc(cc2Cl)C1O (stereo not drawn) [Compound 205, 4-cyclohexylbutyl] | 1 (≈ 0.578 µM) | 0.5 (≈ 0.289 µM) | 0.25 (≈ 0.144 µM)

Second part, the compound after the results:

MIC [1] [µg/mL] | MIC (Entercoccus faecalis 276) [µg/mL] | MIC [2] [µg/mL] | SMILES
≤ 0.06 | ≤ 0.06 | ≤ 0.06 | CNC(CC(C)C)C(=O)NC1C(=O)NC(CC(N)=O)C(=O)NC2C(=O)NC3C(=O)NC(C(=O)NC(C(=O)O)c4cc(O)cc(O)c4-c4cc3ccc4O)C(OC3CC(C)(N)C(O)C(C)O3)c3ccc(c(Cl)c3)Oc3cc2cc(c3OC2OC(CO)C(O)C(O)C2OC2CC(C)(NCc3ccc(-c4ccc(F)cc4)cc3)C(O)C(C)O2)Oc2ccc(cc2Cl)C1O (stereo not drawn) [Compound 211, 4-[4-flurophenyl]benzyl]
8 (≈ 4.7 µM) | ≤ 0.06 | ≤ 0.06 | CNC(CC(C)C)C(=O)NC1C(=O)NC(CC(N)=O)C(=O)NC2C(=O)NC3C(=O)NC(C(=O)NC(C(=O)O)c4cc(O)cc(O)c4-c4cc3ccc4O)C(OC3CC(C)(N)C(O)C(C)O3)c3ccc(c(Cl)c3)Oc3cc2cc(c3OC2OC(CO)C(O)C(O)C2OC2CC(C)(NCc3cc(C)cs3)C(O)C(C)O2)Oc2ccc(cc2Cl)C1O (stereo not drawn) [Compound 66, 3-methyl-5-thienylmethyl]
16 (≈ 9.01 µM) | ≤ 0.06 | ≤ 0.06 | CNC(CC(C)C)C(=O)NC1C(=O)NC(CC(N)=O)C(=O)NC2C(=O)NC3C(=O)NC(C(=O)NC(C(=O)O)c4cc(O)cc(O)c4-c4cc3ccc4O)C(OC3CC(C)(N)C(O)C(C)O3)c3ccc(c(Cl)c3)Oc3cc2cc(c3OC2OC(CO)C(O)C(O)C2OC2CC(C)(NCc3ccc(OS(C)(=O)=O)cc3)C(O)C(C)O2)Oc2ccc(cc2Cl)C1O (stereo not drawn) [Compound 149, 4-methylsulfonyloxybenzyl]
≤ 0.06 | ≤ 0.06 | ≤ 0.06 | CNC(CC(C)C)C(=O)NC1C(=O)NC(CC(N)=O)C(=O)NC2C(=O)NC3C(=O)NC(C(=O)NC(C(=O)O)c4cc(O)cc(O)c4-c4cc3ccc4O)C(OC3CC(C)(N)C(O)C(C)O3)c3ccc(c(Cl)c3)Oc3cc2cc(c3OC2OC(CO)C(O)C(O)C2OC2CC(C)(NCc3sccc3-c3cccs3)C(O)C(C)O2)Oc2ccc(cc2Cl)C1O (stereo not drawn) [Compound 238, 3-[2-thienyl]-2-thienylmethyl]
2 (≈ 1.13 µM) | ≤ 0.06 | ≤ 0.06 | CNC(CC(C)C)C(=O)NC1C(=O)NC(CC(N)=O)C(=O)NC2C(=O)NC3C(=O)NC(C(=O)NC(C(=O)O)c4cc(O)cc(O)c4-c4cc3ccc4O)C(OC3CC(C)(N)C(O)C(C)O3)c3ccc(c(Cl)c3)Oc3cc2cc(c3OC2OC(CO)C(O)C(O)C2OC2CC(C)(NCc3ccc(-c4ccccc4)s3)C(O)C(C)O2)Oc2ccc(cc2Cl)C1O (stereo not drawn) [Compound 67, 5-phenyl-2-thienylmethyl]
0.25 (≈ 0.136 µM) | ≤ 0.06 | ≤ 0.06 | CNC(CC(C)C)C(=O)NC1C(=O)NC(CC(N)=O)C(=O)NC2C(=O)NC3C(=O)NC(C(=O)NC(C(=O)O)c4cc(O)cc(O)c4-c4cc3ccc4O)C(OC3CC(C)(N)C(O)C(C)O3)c3ccc(c(Cl)c3)Oc3cc2cc(c3OC2OC(CO)C(O)C(O)C2OC2CC(C)(NCc3ccc(Oc4ccc(Cl)c(Cl)c4)cc3)C(O)C(C)O2)Oc2ccc(cc2Cl)C1O (stereo not drawn) [Compound 81, 4-[3,4-dichlorophenoxy]benzyl]
